# Like-named read-outs stand apart in the source and are kept apart here.
# Key:
# [1] = tested on: stable HCV 1a RLuc replicon cells (genotype 1a H77 replicon); assay: microbe, parasite or virus in culture; format: cell-based; conditions: Hepatitis C virus
# [2] = tested on: NS5A chimeric genotype 2a JFH-1 replicon with genotype 2a J6 strain NS5A gene (M31 present); assay: microbe, parasite or virus in culture; format: cell-based, HCV; conditions: Hepatitis C virus
# [3] = tested on: NS5A chimeric genotype 1b Con1 replicon with genotype 3a S52 strain NS5A gene; assay: microbe, parasite or virus in culture; format: cell-based, HCV; conditions: Hepatitis C virus
# In short: (§1)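 Genotype 3a (S52) and 4a (ED43) NS5A chimeras use 1b Con1 Pi-RLuc replicons, transfected transiently; 2b MD2b-1 NS5A chimera (M31) uses 2a JFH-1 RLuc-Neo replicon, transient or stable.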
# [4] = tested on: NS5A chimeric genotype 2a JFH-1 replicon with genotype 2b MD2b-1 strain NS5A gene (M31 present); assay: microbe, parasite or virus in culture; format: cell-based, HCV; conditions: Hepatitis C virus
# In short: as §1
# [5] = tested on: 1a Pi-Rluc replicon with Q30R in genotype 1a NS5A; assay: microbe, parasite or virus in culture; format: cell-based, HCV; conditions: Hepatitis C virus
# In short: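 Renilla luciferase replicon assay: 1a Pi-RLuc replicon carrying NS5A Q30R, transfected transiently into cured-51 (Huh-7-derived) cells.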
# [6] = tested on: stable HCV 2a JFH-1 Rluc replicon cells (L31 present in NS5A); assay: microbe, parasite or virus in culture; format: cell-based; conditions: Hepatitis C virus
# [7] = IV and PO single dose pharmacokinetic studies in SD rats; format: in vivo; conditions: male, Sprague-Dawley, rat, plasma, IV infusion 1 mg/kg vs oral gavage 2 mg/kg, read-out: Rat % F
# Description: IV and PO Single Dose Pharmacokinetic Studies in SD Rats: The pharmacokinetics of selected compounds was characterized in male Sprague-Dawley (SD) rats (250-300g). […] The intravenous (IV) dosing vehicle was 5% ethanol, 35% polyethylene glycol 400 (PEG 400) and 60% water pH 2.0. […] Serial blood samples (approximately 0.3 mL each) were collected from jugular vein or other suitable vein at specified time points. […] The blood samples were collected into Vacutainer™ tubes containing EDTA-K3 as the anti-coagulant and were centrifuged at approximately 4° C. to obtain plasma. The plasma samples were stored at −20° C. until analysis by LC/MS/MS. A bioanalytical method utilizing high performance liquid chromatography coupled to tandem mass spectrometry (LC/MS/MS) was developed for analysis of the selected compound in rat plasma. Detection was performed using selected reaction monitoring (SRM); […] Standard curve and quality control samples were prepared in male rat plasma and processed in the same way as the test samples to generate quantitative data. Pharmacokinetic parameters were generated using non-compartmental pharmacokinetic analysis (Phoenix WinNonlin, version 6.3). Values below the lower limit of quantification (LLOQ) were assigned a value of zero if predose and treated as missing thereafter. Area under the curve (AUC) was calculated using the linear trapezoidal rule. The oral bioavailability (% F) was determined by comparison of the area under the curve (AUC) of the compound and/or a metabolite generated in plasma following oral administration to that generated following intravenous administration.
# [8] = tested on: NS5A chimeric genotype 1b Con1 replicon with genotype 4a ED43 strain NS5A gene; assay: microbe, parasite or virus in culture; format: cell-based, HCV; conditions: Hepatitis C virus
SMILES,EC50 ([1]; read-out: 1a),EC50 ([1]; read-out: 1a (nM)),EC50 ([2]; read-out: 2a J6),EC50 ([2]; read-out: 2a Jb (t) (nM)),EC50 ([3]; read-out: 3a),EC50 ([3]; read-out: 3a (nM)),EC50 ([4]; read-out: 2b),EC50 ([4]; read-out: 2b (s) (nM)),EC50 ([4]; read-out: 2b (t) (nM)),EC50 ([5]; read-out: 1a Q30R),EC50 ([5]; read-out: 1a Q30R (nM)),EC50 ([6]; read-out: 2a JFH),EC50 ([6]; read-out: 2a JFH (nM)),bioavailability [7],EC50 ([2]; read-out: 2a J6 (s) (nM)),EC50 ([8]; read-out: 4a),EC50 ([8]; read-out: 4a (s) (nM)),EC50 ([8]; read-out: 4a (t) (nM))
COC(=O)N[C@H](C(=O)N1[C@@H](C)CC[C@H]1c1ncc(-c2ccc3c(c2)COc2cc4c(ccc5nc([C@@H]6C[C@H](C)CN6C(=O)[C@H](NC(=O)OC)c6ccccc6)[nH]c54)cc2-3)[nH]1)C(C)C [Compound 617],< 1 nM,0.009 nM,< 1 nM,0.032 nM,< 1 nM,0.019 nM,< 1 nM,0.011 nM,0.013 nM,< 1 nM,0.024 nM,< 1 nM,0.004 nM,14.4%,,,,
"COC[C@H]1C[C@@H](c2nc3ccc4cc5c(cc4c3[nH]2)OCc2cc(-c3cnc([C@@H]4C[C@H](C)CN4C(=O)[C@@H](NC(=O)OC)C(C)C)[nH]3)ccc2-5)N(C(=O)[C@H](NC(=O)OC)c2ccccc2)C1 [Example MN, methyl {(2S)-1-[(2S,4S)-2-(5-{2-[(2S,4S)-1-{(2R)-2-[(methoxycarbonyl)amino]-2-phenylacetyl}-4-(methoxymethyl)pyrrolidin-2-yl]-1,11-dihydroisochromeno[4′,3′:6,7]naphtho[1,2-d]imidazol-9-yl}-1H-imidazol-2-yl)-4-methylpyrrolidin-1-yl]-3-methyl-1-oxobutan-2-yl}carbamate]",< 1 nM,0.014 nM,< 1 nM,0.017 nM,< 1 nM,0.034 nM,< 1 nM,0.04 nM,0.013 nM,< 1 nM,0.018 nM,< 1 nM,0.008 nM,1.5%,0.071 nM,< 1 nM,0.007 nM,0.024 nM
"COC[C@H]1C[C@@H](c2nc3ccc4cc5c(cc4c3[nH]2)OCc2cc(-c3cnc([C@@H]4C[C@H](C)CN4C(=O)[C@@H](NC(=O)OC)C(C)C)[nH]3)ccc2-5)N(C(=O)[C@@H](NC(=O)OC)C(C)C)C1 [Example MO, methyl {(2S)-1-[(2S,4S)-2-(5-{2-[(2S,4S)-1-{(2S)-2-[(methoxycarbonyl)amino]-3-methylbutanoyl}-4-methoxymethylpyrrolidin-2-yl]-1,11-dihydroisochromeno[4′,3′:6,7]naphtho[1,2-d]imidazol-9-yl}-1H-imidazol-2-yl)-4-methylpyrrolidin-1-yl]-3-methyl-1-oxobutan-2-yl}carbamate]",< 1 nM,0.013 nM,< 1 nM,0.089 nM,< 1 nM,0.051 nM,< 1 nM,0.427 nM,0.137 nM,< 1 nM,0.052 nM,< 1 nM,0.007 nM,7.46%,0.471 nM,< 1 nM,0.018 nM,0.022 nM
"COC[C@H]1C[C@@H](c2ncc(-c3ccc4c(c3)COc3cc5c(ccc6nc([C@@H]7C[C@H](C)CN7C(=O)[C@@H](NC(=O)OC)C(C)C)[nH]c65)cc3-4)[nH]2)N(C(=O)[C@H](NC(=O)OC)c2ccccc2)C1 [Example NM, Methyl {(1R)-2-[(2S,4S)-2-(5-{2-[(2S,4S)-1-{(2S)-2-[(methoxycarbonyl)amino]-3-methylbutanoyl}-4-methylpyrrolidin-2-yl]-1,11-dihydroisochromeno[4′,3′:6,7]naphtho[1,2-d]imidazol-9-yl}-1H-imidazol-2-yl)-4-(methoxymethyl)pyrrolidin-1-yl]-2-oxo-1-phenylethyl}carbamate]",< 1 nM,0.011 nM,< 1 nM,0.012 nM,< 1 nM,0.024 nM,< 1 nM,,0.013 nM,< 1 nM,0.028 nM,< 1 nM,0.006 nM,6.93%,,,,
"COC[C@H]1C[C@@H](c2ncc(-c3ccc4c(c3)COc3cc5c(cc3-4)CCc3nc([C@@H]4CC[C@H](C)N4C(=O)[C@@H](NC(=O)OC)C(C)C)[nH]c3-5)[nH]2)N(C(=O)[C@H](NC(=O)OC)c2ccccc2)C1 [Example OH, methyl {(1R)-2-[(2S,4S)-2-(5-{2-[(2S,5S)-1-{(2S)-2-[(methoxycarbonyl)amino]-3-methylbutanoyl}-5-methylpyrrolidin-2-yl]-1,4,5,11-tetrahydroisochromeno[4′,3′:6,7]naphtho[1,2-d]imidazol-9-yl}-1H-imidazol-2-yl)-4-(methoxymethyl)pyrrolidin-1-yl]-2-oxo-1-phenylethyl}carbamate]",< 1 nM,0.016 nM,< 1 nM,0.054 nM,< 1 nM,0.026 nM,< 1 nM,0.022 nM,0.023 nM,< 1 nM,0.031 nM,< 1 nM,0.007 nM,22.7%,,,,
"COC[C@H]1C[C@@H](c2nc3ccc4cc5c(cc4c3[nH]2)OCc2cc(-c3cnc([C@@H]4CC[C@H](C)N4C(=O)[C@@H](NC(=O)OC)C(C)C)[nH]3)ccc2-5)N(C(=O)[C@@H](NC(=O)OC)[C@@H](C)OC)C1 [Example OM, Methyl {(2S)-1-[(2S,4S)-2-(5-{2-[(2S,5S)-1-{(2S,3R)-3-methoxy-2-[(methoxycarbonyl)amino]butanoyl}-4-(methoxymethyl)pyrrolidin-2-yl]-1,11-dihydroisochromeno[4′,3′:6,7]naphtho[1,2-d]imidazol-9-yl}-1H-imidazol-2-yl)-5-methylpyrrolidin-1-yl]-3-methyl-1-oxobutan-2-yl}carbamate]",< 1 nM,0.014 nM,< 1 nM,0.045 nM,< 1 nM,0.035 nM,< 1 nM,0.054 nM,0.053 nM,< 1 nM,0.035 nM,< 1 nM,0.009 nM,12.2%,,,,
"COC[C@H]1C[C@@H](c2nc3c([nH]2)-c2cc4c(cc2CC3)-c2ccc(-c3cnc([C@@H]5CC[C@H](C)N5C(=O)[C@@H](NC(=O)OC)C(C)C)[nH]3)cc2CO4)N(C(=O)[C@H](NC(=O)OC)c2ccccc2)C1 [Example OP, Methyl {(1R)-2-[(2S,4S)-2-(9-{2-[(2S,5S)-1-{(2S)-2-[(methoxycarbonyl)amino]-3-methylbutanoyl}-5-methylpyrrolidin-2-yl]-1H-imidazol-5-yl}-1,4,5,11-tetrahydroisochromeno[4′,3′:6,7]naphtho[1,2-d]imidazol-2-yl)-4-(methoxymethyl)pyrrolidin-1-yl]-2-oxo-1-phenylethyl}carbamate]",< 1 nM,0.013 nM,< 1 nM,0.018 nM,< 1 nM,0.027 nM,< 1 nM,0.007 nM,0.011 nM,< 1 nM,0.026 nM,< 1 nM,0.008 nM,15.1%,,,,
CC[C@H](C)[C@H](NC(=O)OC)C(=O)N1[C@@H](C)CC[C@H]1c1ncc(-c2ccc3c(c2)COc2cc4c(ccc5nc([C@@H]6C[C@H](COC)CN6C(=O)[C@H](NC(=O)OC)c6ccccc6)[nH]c54)cc2-3)[nH]1 [Example OW],< 1 nM,0.009 nM,< 1 nM,0.009 nM,< 1 nM,0.013 nM,< 1 nM,,0.008 nM,< 1 nM,0.019 nM,< 1 nM,0.006 nM,13.3%,,,,
